Experimental findings from US20230145835A1, “Modulators of Alpha-4-beta-7 Integrin and MAdCAM” (48HD Biopharma Inc., priority 2021, published 2023) are described below.

Numbered stars: 1 amine (or outer) side, 2 acyl side, 3 side chain; on linkers, the order of the positions; unused ones are H or OH. Bridge positions count the residues as written; N and C are the ends. Square brackets hold non-standard residues; d marks the D form. Peptide text beside a SMILES is read from it. * marks the point of attachment. X8 = O=C(/C=N/O/C=C/CCCCOc1cc(C[*:2])cc(C[*:3])c1)[*:1]; X3 = O=C(/C=N/OCCCCCCOc1cc(C[*:2])cc(C[*:3])c1)[*:1]; X7 = O=C(/C=N\OCc1cc(C[*:2])cc(C[*:3])c1)[*:1]; X11 = CCCCCOc1cc(C[*:1])cc(C[*:2])c1; Met(O) = CS(=O)CC[C@H](N)C(=O)O; X10 = CO/N=C/C(=O)*

The IC50 is the point on the concentration scale where inhibition reaches its midpoint.

One experiment addresses T1, rh-integrin α4β7/LPAM-1 (Homo sapiens, UniProt P13612+P26010).
T1 sequence (P13612 34-977 limits assumed): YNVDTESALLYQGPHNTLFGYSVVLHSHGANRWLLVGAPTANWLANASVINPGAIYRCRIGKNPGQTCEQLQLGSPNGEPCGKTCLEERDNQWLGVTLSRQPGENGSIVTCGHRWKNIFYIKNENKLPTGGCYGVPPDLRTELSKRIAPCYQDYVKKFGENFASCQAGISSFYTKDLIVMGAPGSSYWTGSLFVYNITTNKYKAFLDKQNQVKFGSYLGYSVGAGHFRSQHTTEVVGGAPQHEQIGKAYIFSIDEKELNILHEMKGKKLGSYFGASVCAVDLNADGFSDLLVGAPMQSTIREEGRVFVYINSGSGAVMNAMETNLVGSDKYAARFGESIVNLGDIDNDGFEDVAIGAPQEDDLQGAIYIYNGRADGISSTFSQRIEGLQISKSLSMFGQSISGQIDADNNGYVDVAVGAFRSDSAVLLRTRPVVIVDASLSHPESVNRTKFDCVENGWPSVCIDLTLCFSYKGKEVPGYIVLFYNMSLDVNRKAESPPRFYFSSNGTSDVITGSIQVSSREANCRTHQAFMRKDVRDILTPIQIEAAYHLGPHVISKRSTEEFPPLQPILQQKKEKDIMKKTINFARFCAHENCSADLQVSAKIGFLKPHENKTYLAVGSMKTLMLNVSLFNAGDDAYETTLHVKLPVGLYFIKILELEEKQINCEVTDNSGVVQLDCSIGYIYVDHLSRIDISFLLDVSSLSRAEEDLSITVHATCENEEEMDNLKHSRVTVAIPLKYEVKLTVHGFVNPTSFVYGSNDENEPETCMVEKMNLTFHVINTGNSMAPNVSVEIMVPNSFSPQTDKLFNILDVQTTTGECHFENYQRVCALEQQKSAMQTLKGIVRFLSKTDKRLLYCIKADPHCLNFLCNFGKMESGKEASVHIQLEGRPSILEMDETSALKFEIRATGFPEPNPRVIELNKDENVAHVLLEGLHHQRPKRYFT
T1 sequence (P26010 20-723 limits assumed): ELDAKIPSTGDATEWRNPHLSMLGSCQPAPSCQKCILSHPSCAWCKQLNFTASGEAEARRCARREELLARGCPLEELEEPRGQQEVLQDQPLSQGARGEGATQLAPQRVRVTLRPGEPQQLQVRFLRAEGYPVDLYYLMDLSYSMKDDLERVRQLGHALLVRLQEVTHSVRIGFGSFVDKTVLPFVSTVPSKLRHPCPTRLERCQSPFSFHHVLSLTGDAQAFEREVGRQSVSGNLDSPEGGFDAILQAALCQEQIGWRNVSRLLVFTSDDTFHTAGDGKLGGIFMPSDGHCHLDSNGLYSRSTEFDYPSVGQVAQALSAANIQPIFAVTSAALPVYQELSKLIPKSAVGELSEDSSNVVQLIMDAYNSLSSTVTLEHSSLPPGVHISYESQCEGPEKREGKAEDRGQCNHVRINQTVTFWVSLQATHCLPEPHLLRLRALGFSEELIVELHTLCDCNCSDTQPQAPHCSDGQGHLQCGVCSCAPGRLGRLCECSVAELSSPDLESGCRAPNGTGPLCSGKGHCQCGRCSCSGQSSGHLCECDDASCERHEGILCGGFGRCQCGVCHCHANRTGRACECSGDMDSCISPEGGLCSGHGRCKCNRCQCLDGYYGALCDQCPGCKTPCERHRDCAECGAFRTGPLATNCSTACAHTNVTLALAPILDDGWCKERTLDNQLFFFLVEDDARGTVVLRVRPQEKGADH
Briefly: α4β7-MadCAM Competition ELISA (Example 4). It is filed as binding. The conditions noted are these: IC50, Table 3 Representative compounds; inhibition of MAdCAM binding to coated α4β7. As for the experimental part:
After washing with wash buffer, 200 μL assay buffer was added to each well and incubated for one hour at 28° C. After another wash with wash buffer, 100 μL of a MAdCAM and peptide mixture in assay buffer was added to each well and incubated for one hour at 28° C., followed by washing with wash buffer.
A general note: ELISA stands for enzyme-linked immunosorbent assay.
In turn, `CC[C@H](C)[C@@H]1NC(=O)[C@H]([C@@H](C)O)NC(=O)[C@H](CC(=O)O)NC(=O)[C@H](CO)NC(=O)[C@H](CCCNC(=N)N)NC(=O)[C@@H]2CSCc3cc(cc(c3)CSC[C@@H](C(N)=O)NC1=O)CO/N=C\C(=O)N[C@@H](C)C(=O)N2` [compound 94, TSL1- SACRSDTLC] (ACRSDTIC-NH2; linker N-2-8 via X7) showed an IC50 of 111 µM.

Staying with this experiment, now noted: Table 3 Representative compounds; inhibition of MAdCAM binding to coated α4β7; read-out: IC50.
With `C[C@@H](O)[C@@H]1NC(=O)[C@H](CC(=O)O)NC(=O)[C@@H]2CCCN2C(=O)[C@H](Cc2ccccc2)NC(=O)[C@@H]2CSCc3cc(cc(c3)OCCCCCCO/N=C/C(=O)N[C@@H](CC(=O)O)C(=O)N2)CSC[C@@H](C(N)=O)NC(=O)[C@H](Cc2cnc[nH]2)NC(=O)[C@H](Cc2ccc(O)cc2)NC1=O` [compound 84, TSL6- SDCFPDTYHC] (DCFPDTYHC-NH2; linker N-2-9 via X3), the half-inhibitory concentration (IC50) was 65.7 µM.

Turning to `CC[C@H](C)[C@@H]1NC(=O)[C@H](C(C)C)NC(=O)[C@H](CC(=O)O)NC(=O)[C@H](CC(C)C)NC(=O)[C@H](CCSC)NC(=O)[C@@H]2CSCc3cc(cc(c3)OCCCCCCO/N=C/C(=O)N[C@@H](C)C(=O)N2)CSC[C@@H](C(N)=O)NC(=O)[C@H](CO)NC1=O` [compound 85, TSL6- SACMLDVISC] (ACMLDVISC-NH2; linker N-2-9 via X3), the IC50 was found to be 66.6 µM.

In the case of `CC(C)C[C@@H]1NC(=O)CNC(=O)[C@H](Cc2ccc(O)cc2)NC(=O)[C@H](CC(=O)O)NC(=O)[C@H](CO)NC(=O)[C@@H]2CSCc3cc(cc(c3)OCCCCCCO/N=C/C(=O)N[C@@H](C)C(=O)N2)CSC[C@@H](C(N)=O)NC(=O)[C@H](CCC(N)=O)NC1=O` [compound 86, TSL6- SACSDTGLQC] (ACSDYGLQC-NH2; linker N-2-9 via X3), the IC50 was 70.7 µM.

For `C[C@@H](O)[C@@H]1NC(=O)[C@H](CC(=O)O)NC(=O)[C@@H]2CCCN2C(=O)[C@H](Cc2ccc(O)cc2)NC(=O)[C@@H]2CSCc3cc(cc(c3)OCCCCCCO/N=C/C(=O)N[C@@H](CC(=O)O)C(=O)N2)CSC[C@@H](C(N)=O)NC(=O)[C@H](Cc2cnc[nH]2)NC(=O)[C@H](Cc2ccc(O)cc2)NC1=O` [compound 88, TSL6- SDCYPDTYHC] (DCYPDTYHC-NH2; linker N-2-9 via X3), the 50% inhibitory concentration (IC50) is 72.5 µM.

On to `C[C@@H](O)[C@@H]1NC(=O)[C@H](CC(=O)O)NC(=O)[C@@H]2CCCN2C(=O)[C@H](Cc2ccc(O)cc2)NC(=O)[C@@H]2CSCc3cc(cc(c3)OCCCC/C=C/O/N=C/C(=O)N[C@@H](CC(N)=O)C(=O)N2)CSC[C@@H](C(N)=O)NC(=O)[C@H](Cc2cnc[nH]2)NC(=O)[C@H](Cc2ccc(O)cc2)NC1=O` [compound 89, TSL6- SNCYPDTYHC] (NCYPDTYHC-NH2; linker N-2-9 via X8), for which the IC50 amounted to 79.3 µM.

As to `CC[C@H](C)[C@@H]1NC(=O)[C@H]([C@@H](C)O)NC(=O)[C@H](CC(=O)O)NC(=O)[C@H](CO)NC(=O)[C@H](CCCNC(=N)N)NC(=O)[C@@H]2CSCc3cc(cc(c3)OCCCCCCO/N=C/C(=O)N[C@@H](C)C(=O)N2)CSC[C@@H](C(N)=O)NC1=O` [compound 90, TSL6- SACRSDTLC] (ACRSDTIC-NH2; linker N-2-8 via X3), the concentration for half-maximal inhibition (IC50) was determined as 79.8 µM.

Regarding `CC[C@H](C)[C@@H]1NC(=O)/C=N/OCCCCCCOc2cc3cc(c2)CSC[C@H](NC1=O)C(=O)N[C@@H](Cc1ccc(O)cc1)C(=O)N1CCC[C@H]1C(=O)N[C@@H](CC(=O)O)C(=O)N[C@@H]([C@@H](C)O)C(=O)N[C@@H](Cc1ccc(O)cc1)C(=O)N[C@@H](Cc1cnc[nH]1)C(=O)N[C@H](C(N)=O)CSC3` [compound 91, TSL6- SICYPDTYHC] (ICYPDTYHC-NH2; linker N-2-9 via X3), the IC50 amounted to 93.2 µM.

Regarding `CC[C@H](C)[C@@H]1NC(=O)[C@H](CC(=O)O)NC(=O)[C@H](CC(C)C)NC(=O)[C@@H]2CSCc3cc(cc(c3)OCCCCCCO/N=C/C(=O)N[C@@H](CCCNC(=N)N)C(=O)N2)CSC[C@@H](C(N)=O)NC(=O)[C@H](CC(=O)O)NC(=O)[C@H](Cc2ccc(O)cc2)NC(=O)[C@H]([C@@H](C)O)NC1=O` [compound 92, TSL6- SRCLDIMYDC] (RCLDITYDC-NH2; linker N-2-9 via X3), the IC50 is 100 µM.

With `C[C@@H]1NC(=O)/C=N/OCCCCCCOc2cc3cc(c2)CSC[C@H](NC1=O)C(=O)N[C@@H](Cc1ccc(O)cc1)C(=O)N1CCC[C@H]1C(=O)N[C@@H](CC(=O)O)C(=O)N[C@@H]([C@@H](C)O)C(=O)N[C@@H](Cc1ccc(O)cc1)C(=O)N[C@@H](Cc1cnc[nH]1)C(=O)N[C@H](C(N)=O)CSC3` [compound 93, TSL6- SACYPDTYHC] (ACYPDTYHC-NH2; linker N-2-9 via X3), the IC50 is 111 µM.

For the compound `C[C@@H](O)[C@@H]1NC(=O)[C@H](CC(=O)O)NC(=O)[C@@H]2CCCN2C(=O)[C@H](Cc2c[nH]c3ccccc23)NC(=O)[C@@H]2CSCc3cc(cc(c3)OCCCCCCO/N=C/C(=O)N[C@@H](CC(=O)O)C(=O)N2)CSC[C@H](C(N)=O)NC(=O)[C@H](Cc2cnc[nH]2)NC(=O)[C@H](Cc2ccc(O)cc2)NC1=O` [compound 95, TSL6- SDCWPDTYHC] (DCWPDTYH[dC]-NH2; linker N-2-9 via X3), the IC50 was 114 µM.

In the case of `NC(=O)[C@@H]1CSCc2cc3cc(c2)OCCCCCCO/N=C/C(=O)N[C@@H](CC(=O)O)C(=O)N[C@@H](CSC3)C(=O)N[C@@H](Cc2ccc(O)cc2)C(=O)N2CCC[C@H]2C(=O)N[C@@H](CC(=O)O)C(=O)N[C@@H](Cc2ccccc2)C(=O)N[C@@H](Cc2ccc(O)cc2)C(=O)N[C@@H](Cc2cnc[nH]2)C(=O)N1` [compound 96, TSL6- SDCYPDFYHC] (DCYPDFYHC-NH2; linker N-2-9 via X3), the IC50 is 124 µM.

Regarding `CCCCCOc1cc2cc(c1)CSC[C@H](NC(=O)[C@H](Cc1ccccc1)NC(=O)/C=N/OC)C(=O)N[C@@H](CC(C)C)C(=O)NCC(=O)N[C@@H](Cc1ccc(O)cc1)C(=O)N[C@@H](CCC(=O)O)C(=O)N[C@@H](C)C(=O)N[C@@H]([C@@H](C)O)C(=O)N[C@H](C(N)=O)CSC2` [compound 97, TSL6- SFCLGYEASC] (X10-FCLGYEATC-NH2; linker 2-9 via X11), the IC50 stood at 127 µM.

As to `CSCC[C@@H]1NC(=O)/C=N/OCCCCCCOc2cc3cc(c2)CSC[C@H](NC1=O)C(=O)N1CCC[C@H]1C(=O)N[C@@H](CC(C)C)C(=O)N[C@@H](Cc1ccc(O)cc1)C(=O)N[C@@H](CCCCN)C(=O)N[C@@H](C(C)C)C(=O)N[C@@H](Cc1cnc[nH]1)C(=O)N[C@H](C(N)=O)CSC3` [compound 98, TSL6- SMCPLYKVHC] (MCPLYKVHC-NH2; linker N-2-9 via X3), the IC50 is 151 µM.

In the case of `CC[C@H](C)[C@@H]1NC(=O)[C@H](C)NC(=O)[C@H](CC[S+](C)[O-])NC(=O)[C@@H]2CCCN2C(=O)[C@@H]2CSCc3cc(cc(c3)OCCCCCCO/N=C/C(=O)N[C@@H](CCC(N)=O)C(=O)N2)CSC[C@@H](C(N)=O)NC(=O)[C@H]([C@@H](C)O)NC(=O)[C@@H]2CCCN2C1=O` (stereo partly shown) [compound 99, TSL6-SQCP{Ox-Met} AIPTC] (QCP[Met(O)]AIPTC-NH2; linker N-2-9 via X3), the IC50 was determined as 152 µM.

In the case of `CSCC[C@@H]1NC(=O)[C@H]([C@@H](C)O)NC(=O)[C@H](C)NC(=O)CNC(=O)[C@@H]2CSCc3cc(cc(c3)OCCCCCCO/N=C/C(=O)N[C@@H](Cc3ccccc3)C(=O)N2)CSC[C@@H](C(N)=O)NC(=O)[C@H](CCCCN)NC(=O)[C@H](CCCCN)NC1=O` [compound 100, TSL6- SFCGATMKKC] (FCGATMKKC-NH2; linker N-2-9 via X3), the half-maximal inhibitory concentration (IC50) was found to be 162 µM.
